Measurements from patent US12661404B2, “Methods and materials for tissue ablation” (Mayo Foundation for Medical Education and Research, priority 2020, dated 2026).
Where two headings read alike, the source gives them in different places.

What was measured:
N1S1 liver tumors = test: Intratumoral injection of LATTE in N1S1 rat model of liver cancer; assay type: in vivo
Protocol: All procedures were approved by the institutional animal care and use committee and performed according to institutional guidelines. […] N1S1 cells were maintained in suspension in a 75 cm^2 culture flasks at 37° C. in a 5% CO2 humidified chamber. […] To prepare the cells for inoculation, N1S1 cell aliquots were rinsed and suspended in plain IMDM (without antibiotics or serum) to yield 2×10^6 cells in 100 μL of fresh aliquots for each inoculation. The rat liver was surgically exposed through upper midline laparotomy under isoflurane anesthesia followed by subcapsular inoculation of N1S1 cells into the left liver lobe. Gentle compression with gauze for hemostasis was used to prevent cell reflux. The abdominal incision was closed using interrupted Vicryl sutures for abdominal muscle and subcuticular suture for the skin, followed by the application of Vetbond tissue adhesive (3M, St. Paul, MN) followed by recovery from anesthesia. Intratumoral injection of the ionic liquid mixture was performed in three groups of rats bearing 0.5 cm^3 N1S1 tumor lesions measured with ultrasound. […] All solutions contained 0.25 mg/mL indocyanine green (ICG, Sigma-Aldrich, St. Louis, MO) solubilized in normal saline. Following intratumoral injections, treated rats were allowed to survive for 2 weeks after treatment, and tumor volume was documented using ultrasound. N1S1 tumor progression and treatment response was assessed using percutaneous ultrasonography. Selected focal zone depth, gain, and tissue harmonic settings were optimized during the acquisition of the initial imaging at baseline, and the same parameters were applied during acquisition after intratumoral injection of LATTE mixture. Serial ultrasound examinations were performed on rat livers following N1S1 inoculation to confirm tumor formation and assess tumor volume. Rats were anesthetized using a gas mixture of 2-3% isoflurane in 100% oxygen via a nose cone. Rats were secured in a supine position on an electronically controlled warming platform to maintain the temperature at 37° C. during the imaging procedure. The abdominal area was shaved and prepped with depilatory cream (Nair, Church& Dwight Co. INC). Initially, abdominal sonography was performed to delineate tumor mass boundaries in grayscale (B-mode) using ACUSON 52000 system (Siemens Inc., Germany) and a multi-frequency linear transducer (9L4, 9.0 MHz). The transducer was positioned to obtain 2D scans via the subcostal window to document liver tumors and measure lesion diameter. […] Tumor volumes were calculated as following: V=(4/3)×π×(1/2) SI×(1/2)LM×1/2 AP. Color Doppler images were also acquired to detect the distribution of the tumor blood flow weekly.
To visualize normal liver parenchyma on CT imaging, rats received a bolus injection of 400 μL of the alkaline earth metal-based nanoparticle suspension, Exitron nano 12000 (Miltenyi Biotec, Auburn, CA) two hours prior to micro-CT scanning. Rats were anesthetized using inhalation of 2-3% isoflurane in 100% 02 at a constant flow rate of 2 L/minute and placed on a cassette equipped with a warming system and continuous gas exchange and integrated real-time motion detection camera. Fixed rat tissues were placed and immobilized using styrofoam beads inside a humidified plastic chamber. […] The 3D image stacks were reconstructed using NRecon software and InstaRecon CBR Server (version: 1.7.4.6, Bruker, Kontich, Belgium) following adjustment of random movements, beam-hardening correction, and ring artifact reduction and smoothing. 3D volume rendering was visualized using CTVox software (version: 3.3. 0 r1383, Bruker, Kontich, Belgium). The stacks were virtually rotated and axially oriented to yield transverse projections of select volume of interest (VOI) using Data Viewer software (Bruker, Kontich, Belgium).

[1] = test system: freshly resected human tumors; conditions: 25%-LATTE mixed with ICG, 24 hours at 37° C., 12 tumors
Protocol: The fluorescent intensity and diffusion area were calculated using similar parameters for all tissues. […] LATTE was able to ablate a variety of highly malignant human tumors.
Explanted human cancer tissues were collected following surgical resection and placed in RPMI medium for preservation. […] Near-infrared fluorescent imaging (NIRF) was performed at 5 minutes after injection. […] Tissues were transected to reveal the ablated zone were fixed in 10% buffered formalin, embedded in paraffin, then sectioned and subsequently stained with hematoxylin and eosin for microscopic evaluation.

fat cells (adipocytes) = test: Explanted pig fat tissue incubated with LATTE; conditions: after 1 hour in LATTE solution
pig blood cells = test system: pig blood cells
Protocol: (§1) The effect of IL on coagulation and cell death in blood was evaluated in vitro. To evaluate the effect of cell death along the margins of the ablation zone, specifically on the effect of IL on inflammatory cells, blood treated with low concentrations of IL was used to simulate concentrations along the ablation margins. To analyze the effect of the ionic liquid on blood coagulation, RBC hemolysis, and immune cells, analyses including rheometry, hemolyses assay, complete blood counts were performed on blood smears following incubation of pig blood aliquots with various concentrations of IL.

pig blood = test system: pig blood
Protocol: as §1

[2] = test system: human hepatocellular carcinoma (Hep-G2) cells; conditions: Hep-G2, 24 hours incubation, WST-1
Protocol: HepG2 human liver cancer cell line (ATCC CRL10741; American Type Culture Collection, Manassas, VA, USA) were cultured in 75 cm^2 flasks using growth medium consisting of low glucose Dulbecco's Modified Eagle Medium (DMEM, ThermoFisher) and 10% heat-inactivated bovine serum that was supplemented with 100 IU penicillin and 10 μg/mL streptomycin (Thermo Fisher Scientific). […] The anticancer activity of LATTE on HepG2 was determined using WST-1 reagent (2-(4-Iodophenyl)-3-(4-nitrophenyl)-5-(2,4-disulfophenyl)-2H-tetrazolium sodium) assay as an indication of viability/cytotoxicity treatment. WST-1 viability assay is based on the reduction of tetrazolium salt, WST-1 to an insoluble formazan dye by electron transport across the plasma membrane in viable cells that alter the optical density of the media. […] Cell viability was calculated relative to control wells that received the growth medium alone.
All reported values are the means of three replicate experiments with each study having 8 wells per dose level. Plots of the log concentration versus fractional viability for each drug were generated for each study.

Question: How did the “tumor volume by micro-CT vs saline” value (N1S1 liver tumors; 2 weeks post-treatment) turn out when choline-geranate [LATTE] was run?
Answer: substantially smaller tumor volumes

Question: And the “tumor size on gray-scale US, smaller than saline injected group” value (N1S1 liver tumors; 25%-LATTE intratumoral, two weeks)?
Answer: 5 fold

Question: What about the “CD68-expressing macrophages, increase” value (N1S1 liver tumors; tumor sections, two weeks) of the same substance?
Answer: 16 fold

Question: What about the “number of apoptotic (cleaved Caspase-3) cells, higher than saline group” value (N1S1 liver tumors; tumor sections, two weeks) of the same substance?
Answer: 24 fold

Question: And the “treatment response on micro-CT review by radiologist, size criteria” value (N1S1 liver tumors; two weeks)?
Answer: complete treatment response

Question: And the “tumor histology (H&E)” value (N1S1 liver tumors; two weeks)?
Answer: complete tumor necrosis

Question: What about the “morphometric analysis of tumor size and cell count” value (N1S1 liver tumors; two weeks, vs saline) of the same substance?
Answer: significant reduction in tumor size and cell count

Question: What about the “proliferating (PCNA) cells” value (N1S1 liver tumors; two weeks, vs saline) of the same substance?
Answer: markedly reduced number of proliferating cells

Question: And the “CD3+ T-lymphocyte infiltration” value (N1S1 liver tumors; within treated tumor margin, two weeks)?
Answer: enhanced CD3+T-lymphocyte infiltration

Question: And the tumor tissue histology [1]?
Answer: marked tissue destruction

Question: And the “fat depletion from adipocytes” value (fat cells (adipocytes))?
Answer: fat was depleted

Question: What about the “red blood cells (RBC) total count” value (pig blood cells; 0.78, 1.56, 3.12 wt % IL) of the same substance?
Answer: concentration dependent decrease

Question: And the “white blood cells (WBC) total count” value (pig blood cells; 0.78, 1.56, 3.12 wt % IL)?
Answer: concentration dependent decrease

Question: What about the lymphocyte count (pig blood cells; 0.78, 1.56, 3.12 wt % IL, compared to control) of the same substance?
Answer: no change in lymphocyte count

Question: And the hemolysis test (pig blood cells; 0.78-25 wt % IL)?
Answer: significant increase in hemolysis

Question: What about the “hemolysis on stained blood smears” value (pig blood cells; 3.12 wt % IL) of the same substance?
Answer: complete hemolysis

Question: And the “blood coagulation initiation lag time (tlag)” value (pig blood; 0.78% IL)?
Answer: slight increase in lag time

Question: And the “decrease in storage modulus (G′) at 30 minutes” value (pig blood; 0.78% IL)?
Answer: ~20%

Question: And the “blood coagulation initiation lag time (tlag)” value (pig blood; 1.56 wt % IL)?
Answer: significantly extended lag time

Question: And the “drop in storage modulus (G′) at 30 minutes” value (pig blood; 1.56 wt % IL)?
Answer: 95%

Question: And the “coagulation during 30 minutes testing period” value (pig blood; 3.12 wt % IL)?
Answer: failed to coagulate

Question: What about the “decrease in storage modulus (G′) at 30 minutes” value (pig blood; 3.12 wt % IL) of the same substance?
Answer: 100 wt %

Question: What about the “effective dose (EC50), fractional cell viability” value [2] of the same substance?
Answer: 0.19%
